The record followed here is patent publication US20130109682A1, “CYCLIC ETHER COMPOUNDS USEFUL AS KINASE INHIBITORS” (NOVARTIS AG, priority 2010, published 2013).

In one assay the target is PIM1 (Homo sapiens, UniProt P11309). The assay can be described thus: Pim 1 AlphaScreen assay (high ATP). The class given is biochemical. The conditions noted are these: read-out: Pim1 IC50. The procedure, abridged:
(§1)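 IC50 values rest on detection of phosphorylated Bad peptide: after a ~2 h kinase reaction, an EDTA stop buffer containing anti-phospho Ser/Thr antibody, Protein A and streptavidin AlphaScreen beads was added and read after overnight dark incubation. ATP was high (11-125× Km), with 2.5% DMSO in pH 7.5 Hepes buffer containing MgCl2, BSA, Tween-20 and DTT.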

For another assay, the target named is PIM3 (Homo sapiens, UniProt Q86V86). The assay can be described thus: Pim 3 AlphaScreen assay (high ATP). Format: biochemical. The following applies: read-out: Pim3 IC50. A digest of the protocol: as §1
On the technique in general: In Alpha technology, singlet oxygen from a donor bead excites a nearby acceptor bead.

PIM1, sequence (P11309 whole entry): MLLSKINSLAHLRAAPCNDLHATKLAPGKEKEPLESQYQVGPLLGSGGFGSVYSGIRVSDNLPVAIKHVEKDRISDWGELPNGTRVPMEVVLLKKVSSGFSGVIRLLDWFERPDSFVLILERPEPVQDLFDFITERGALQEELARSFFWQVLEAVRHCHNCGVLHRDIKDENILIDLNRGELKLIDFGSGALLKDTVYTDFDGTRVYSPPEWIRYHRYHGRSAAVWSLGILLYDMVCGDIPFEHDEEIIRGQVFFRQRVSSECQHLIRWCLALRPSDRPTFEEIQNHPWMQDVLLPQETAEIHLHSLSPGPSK

A word on the IC50: it is the point on the concentration scale where inhibition reaches its midpoint. As for `Nc1cc(F)c(-c2c(F)cccc2F)nc1C(=O)Nc1cnccc1[C@H]1C[C@@H](N)[C@@]2(O)CCCC[C@H]2O1` [Example 238, 3-amino-N-(4-((2R,4R,4aS,8aR)-4-amino-4a-hydroxyoctahydro-2H-chromen-2-yl)pyridin-3-yl)-6-(2,6-difluorophenyl)-5-fluoropicolinamide], the IC50 was determined as 80 pM at PIM1 and 600 pM on PIM3.
Consider `COc1cc(F)c(-c2nc(C(=O)Nc3cnccc3[C@H]3C[C@@H](N)[C@](C)(O)[C@@H](C)O3)ccc2F)c(F)c1` [Example 242, N-(4-((2R,4R,5S,6R)-4-amino-5-hydroxy-5,6-dimethyltetrahydro-2H-pyran-2-yl)pyridin-3-yl)-6-(2,6-difluoro-4-methoxyphenyl)-5-fluoropicolinamide], for which the IC50 came out at 40 pM at PIM1 and 800 pM at PIM3.
